PMC11477000, “Enantioselective Binding of Proton Pump Inhibitors to Alpha1-Acid Glycoprotein and Human Serum Albumin—A Chromatographic, Spectroscopic, and In Silico Study” (International Journal of Molecular Sciences, 2024)

Key:
[1] = target: human serum albumin (HSA) (Homo sapiens, UniProt P02768); assay: van 't Hoff thermodynamic analysis on HSA column; type: binding; conditions: for Δ(ΔG°) / Δ(ΔH°) / Δ(ΔS°): pH 7, 95:5 buffer:IPA, 10–30 °C
Experimental: The temperature effect was investigated at pH 7 and a 95:5 buffer:IPA eluents ratio, between 10 and 30 °C on both columns. […] The determination of thermodynamic parameters can provide valuable insights into the process of enantiodiscrimination, including its mechanistic aspects. The applied classical van ’t Hoff methodology postulates the existence of solely enantioselective interaction sites on the stationary phase. Nonetheless, it should be emphasized that a more realistic approach would encompass both enantioselective and non-enantioselective interactions. The isoenantioselective temperatures (Tiso) were calculated by dividing Δ(ΔH°) by Δ(ΔS°). At this temperature, enthalpy and entropy compensations negate each other, resulting in the coelution of the two enantiomers and no separation. The Q values (Q = Δ(ΔH°)/T × Δ(ΔS°)298K) were used for visualizing the relative contribution of enthalpic and entropic terms to the free energy of adsorption. If the Q values were smaller than 1, the enantioseparation was controlled by entropy to a higher extent.
Classical van ’t Hoff analysis was applied to determine the thermodynamic parameters. Van ’t Hoff plots were constructed by plotting the natural logarithm of the retention factor as a function of the inverse of the absolute temperature (thermodynamic temperature) over a temperature range of 10–30 °C:(5) […]
In the equation, R represents the universal gas constant, T represents the absolute temperature in Kelvin, and k represents the retention factor of the enantiomers. ΔH° stands for the standard enthalpy, while ΔS° represents the standard entropy change of transfer of the solute from the mobile phase to the stationary phase. Φ is the phase ratio of the column. If ΔH° remains constant within the selected temperature range, a linear relationship can be observed between lnk and 1/T. The slope of this relationship is −ΔH°/R, and the intercept is ΔS°/R + ln Φ. Since the value of the phase ratio is rarely known, ΔS°* values (ΔS°* = ΔS° + Rln Φ) are often used to account for the uncertainty in Φ. Similarly, the difference in the change of standard enthalpy, Δ(ΔH°), and standard entropy, Δ(ΔS°), for the two enantiomers was calculated as follows:(6) lnα=−ΔΔH°/RT+ΔΔS°/R

[2] = tested on: α1-acid glycoprotein (AGP); assay: HPLC on AGP-based chiral stationary phase (ChromTech Chiral-AGP column); type: binding, human; conditions: 10 mM pH 7 phosphate buffer, 25 °C
Experimental: HPLC using a protein-based chiral stationary phase is a fully automated method for obtaining rapid information about the binding of compounds to the respective proteins. Enantioseparation occurs in the case of unequal binding constants of the individual enantiomers to the immobilized proteins, thus allowing enantioselective binding to be characterized even when a racemic mixture was injected. As a preliminary step, the enantiospecific binding was investigated on columns containing AGP and HSA in various alcohol:buffer mixtures. A pH 7 phosphate buffer was employed as the aqueous part of the mobile phase, while for the organic part, three different alcohols were evaluated. […]
Chromatographic measurements were carried out on two separate HPLC systems. The AGP binding study was performed on a Waters 2695e chromatographic system paired with a Waters 2996 PDA detector, controlled by Empower 3 FR5 (Waters Corp., Milford, MA, USA), while the HSA binding study was performed on an Agilent 1100 HPLC system, consisting of an inline degasser (G1322A), a quaternary pump (G1311A), an automatic injector (G1329A) paired with sample thermostat (G1330A), a column thermostat (G1316A), and a diode array detector (G1315A) with Agilent Chemstation B04.03-SP2 software (Agilent, Bronnwald, Germany). For the binding studies, two protein-based chiral stationary phases were utilized. The chromatographic binding study for AGP was conducted on a ChromTech Chiral-AGP column (150 mm × 4.0 mm; ChromTech Ltd., Congleton, UK), while the binding study for HSA was performed on a Daicel Chiralpak HSA column (50 mm × 4.0 mm; Daicel Corp., Osaka, Japan). The detection wavelength was 210 nm for all measurements. The stock solutions of PPIs were prepared at a concentration of 1 mg/mL in MeOH. Subsequent dilutions were prepared using water. The injected samples were mixed and diluted from the stock solutions. The final concentration for the eutomer was 0.2 mg/mL, and for the distomer, it was 0.1 mg/mL. A volume of 2 μL was injected. To mitigate the instability of PPIs in aqueous solutions, the samples were kept at a temperature of 4 °C.

[3] = difference between the two enantiomers

human serum albumin (HSA), sequence (P02768 25-609): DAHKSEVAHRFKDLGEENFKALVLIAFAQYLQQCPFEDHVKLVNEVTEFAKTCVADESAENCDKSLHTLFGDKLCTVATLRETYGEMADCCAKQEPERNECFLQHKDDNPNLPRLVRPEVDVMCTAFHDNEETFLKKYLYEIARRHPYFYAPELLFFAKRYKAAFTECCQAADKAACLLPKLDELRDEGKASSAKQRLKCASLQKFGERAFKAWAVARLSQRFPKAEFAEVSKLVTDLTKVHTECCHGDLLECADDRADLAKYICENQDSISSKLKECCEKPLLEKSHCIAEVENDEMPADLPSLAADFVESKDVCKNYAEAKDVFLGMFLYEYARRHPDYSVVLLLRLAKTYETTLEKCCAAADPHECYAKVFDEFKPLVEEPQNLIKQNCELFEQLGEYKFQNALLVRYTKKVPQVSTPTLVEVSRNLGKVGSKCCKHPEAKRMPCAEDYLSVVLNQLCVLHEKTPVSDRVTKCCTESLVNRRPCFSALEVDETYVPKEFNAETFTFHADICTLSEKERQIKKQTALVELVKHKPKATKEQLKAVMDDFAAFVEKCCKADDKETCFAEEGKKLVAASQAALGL

In the case of Cc1c(OCC(F)(F)F)ccnc1C[S@+]([O-])c1nc2ccccc2[nH]1 [S-lansoprazole], the “Δ(ΔG°)” value ([1]; single enantiomer) was -1.58 kcal/mol, the “Δ(ΔH°)” value ([1]; single enantiomer) was -2.68 kcal/mol and the “Δ(ΔS°)” value ([1]; single enantiomer) was −15.9 J/molK.
In the case of COCCCOc1ccnc(C[S+]([O-])c2nc3ccccc3[nH]2)c1C (stereo not shown) [Rabeprazole, rabeprazole], the “k1 retention factor (first-eluting enantiomer)” value (“k1 retention factor” for short) ([2]; 2.5% IPA) was 14.89, the “k2 retention factor (second-eluting enantiomer)” value (from here on “k2 retention factor”) ([2]; 2.5% IPA) was 21.66 and the “k1 retention factor” value ([2]; 5% EtOH) was 13.04. The “k2 retention factor” value ([2]; 5% EtOH) was 20.84, the “k1 retention factor” value ([2]; 5% IPA) was 6.68 and the “k2 retention factor” value ([2]; 5% IPA) was 7.89. For the same compound, the “k1 retention factor” value ([2]; 5% MeOH) was 20.89, the “k2 retention factor” value ([2]; 5% MeOH) was 42.82 and the “k1 retention factor” value ([2]; 7.5% EtOH) was 7.21. For the same compound, the “k2 retention factor” value ([2]; 7.5% EtOH) was 10.50, the “k2 retention factor” value ([2]; 7.5% IPA) was 3.90 and the “k1 retention factor” value ([2]; 7.5% MeOH) was 12.90. For the same compound, the “k2 retention factor” value ([2]; 7.5% MeOH) was 26.14, the “k1 retention factor” value ([2]; 10% EtOH) was 4.39 and the “k2 retention factor” value ([2]; 10% EtOH) was 5.89. For the same compound, the “k1 retention factor” value ([2]; 10% IPA) was 2.47, the “k2 retention factor” value ([2]; 10% IPA) was 2.47 and the “k1 retention factor” value ([2]; 10% MeOH) was 8.63. The “k2 retention factor” value ([2]; 10% MeOH) was 16.71, the “k1 retention factor” value ([2]; 12.5% IPA) was 1.72 and the “k2 retention factor” value ([2]; 12.5% IPA) was 1.72. The “k1 retention factor” value ([2]; 15% EtOH) was 2.11, the “k2 retention factor” value ([2]; 15% EtOH) was 2.48 and the “k1 retention factor” value ([2]; 15% IPA) was 1.27. For the same compound, the “k2 retention factor” value ([2]; 15% IPA) was 1.27, the “k1 retention factor” value ([2]; 15% MeOH) was 5.97 and the “k2 retention factor” value ([2]; 15% MeOH) was 11.00.
For Cc1c(OCC(F)(F)F)ccnc1C[S+]([O-])c1nc2ccccc2[nH]1 (stereo not shown) [Lansoprazole, lansoprazole], the “k1 retention factor” value ([2]; 2.5% IPA) was 15.75, the “k2 retention factor” value ([2]; 2.5% IPA) was 19.61 and the “k1 retention factor” value ([2]; 5% EtOH) was 14.52. The “k2 retention factor” value ([2]; 5% EtOH) was 18.43, the “k1 retention factor” value ([2]; 5% IPA) was 6.88 and the “k2 retention factor” value ([2]; 5% IPA) was 9.12. For the same compound, the “k1 retention factor” value ([2]; 5% MeOH) was 22.63, the “k2 retention factor” value ([2]; 5% MeOH) was 28.55 and the “k1 retention factor” value ([2]; 7.5% EtOH) was 8.24. For the same compound, the “k2 retention factor” value ([2]; 7.5% EtOH) was 10.64, the “k1 retention factor” value ([2]; 7.5% IPA) was 4.00 and the “k2 retention factor” value ([2]; 7.5% IPA) was 5.28. For the same compound, the “k1 retention factor” value ([2]; 7.5% MeOH) was 14.63, the “k2 retention factor” value ([2]; 7.5% MeOH) was 18.79 and the “k1 retention factor” value ([2]; 10% EtOH) was 5.13. For the same compound, the “k2 retention factor” value ([2]; 10% EtOH) was 6.62, the “k1 retention factor” value ([2]; 10% IPA) was 2.67 and the “k2 retention factor” value ([2]; 10% IPA) was 3.47. For the same compound, the “k1 retention factor” value ([2]; 10% MeOH) was 9.96, the “k2 retention factor” value ([2]; 10% MeOH) was 12.56 and the “k1 retention factor” value ([2]; 12.5% IPA) was 1.95. The “k2 retention factor” value ([2]; 12.5% IPA) was 2.47, the “k1 retention factor” value ([2]; 15% EtOH) was 2.54 and the “k2 retention factor” value ([2]; 15% EtOH) was 3.21. The “k1 retention factor” value ([2]; 15% IPA) was 1.48, the “k2 retention factor” value ([2]; 15% IPA) was 1.83 and the “k1 retention factor” value ([2]; 15% MeOH) was 7.02. For the same compound, the “k2 retention factor” value ([2]; 15% MeOH) was 8.75, the Q ([1]; Q = Δ(ΔH°)/T × Δ(ΔS°)298K) was 1.4 and the “Δ(ΔG°)” value [1, 3] was -0.17 kcal/mol. The “Δ(ΔH°)” value [1, 3] was -0.669 kcal/mol, the “Δ(ΔS°)” value [1, 3] was −7.2 J/molK and the Tiso isoenantioselective temperature ([1]; Δ(ΔH°)/Δ(ΔS°)) was 128.9 °C.
COc1ccc2[nH]c([S+]([O-])Cc3ncc(C)c(OC)c3C)nc2c1 (stereo not shown) [Omeprazole, omeprazole] was tested, and the “k1 retention factor” value ([2]; 2.5% IPA) was 13.24, the “k2 retention factor” value ([2]; 2.5% IPA) was 16.18 and the “k1 retention factor” value ([2]; 5% EtOH) was 12.69. For the same compound, the “k2 retention factor” value ([2]; 5% EtOH) was 15.14, the “k1 retention factor” value ([2]; 5% IPA) was 5.46 and the “k2 retention factor” value ([2]; 5% IPA) was 5.46. The “k1 retention factor” value ([2]; 5% MeOH) was 25.74, the “k2 retention factor” value ([2]; 5% MeOH) was 37.33 and the “k1 retention factor” value ([2]; 7.5% EtOH) was 6.57. For the same compound, the “k2 retention factor” value ([2]; 7.5% EtOH) was 7.20, the “k1 retention factor” value ([2]; 7.5% IPA) was 2.88 and the “k2 retention factor” value ([2]; 7.5% IPA) was 2.88. For the same compound, the “k1 retention factor” value ([2]; 7.5% MeOH) was 15.56, the “k2 retention factor” value ([2]; 7.5% MeOH) was 21.41 and the “k1 retention factor” value ([2]; 10% EtOH) was 4.02. The “k2 retention factor” value ([2]; 10% EtOH) was 4.02, the “k1 retention factor” value ([2]; 10% IPA) was 1.87 and the “k2 retention factor” value ([2]; 10% IPA) was 1.87. The “k1 retention factor” value ([2]; 10% MeOH) was 9.95, the “k2 retention factor” value ([2]; 10% MeOH) was 13.05 and the “k1 retention factor” value ([2]; 12.5% IPA) was 1.33. The “k2 retention factor” value ([2]; 12.5% IPA) was 1.33, the “k1 retention factor” value ([2]; 15% EtOH) was 1.81 and the “k2 retention factor” value ([2]; 15% EtOH) was 1.81. For the same compound, the “k1 retention factor” value ([2]; 15% IPA) was 1.01, the “k2 retention factor” value ([2]; 15% IPA) was 1.01 and the “k1 retention factor” value ([2]; 15% MeOH) was 6.70. The “k2 retention factor” value ([2]; 15% MeOH) was 8.43.
With Cc1c(OCC(F)(F)F)ccnc1C[S@@+]([O-])c1nc2ccccc2[nH]1 [R-lansoprazole, dexlansoprazole] the “Δ(ΔG°)” value ([1]; single enantiomer) was -1.39 kcal/mol, the “Δ(ΔH°)” value ([1]; single enantiomer) was -2.01 kcal/mol and the “Δ(ΔS°)” value ([1]; single enantiomer) was −8.7 J/molK.
